What all share (assay type): cell-based
One experiment relates to AR protein. The experiment in a line: Western blot of AR protein after Hsp90 inhibitor treatment of TNBC cell lines. The settings on record: 50 nM, 8 hrs. The method, then:
(§1) TNBC cell lines were pre-treated for 2 hours with dexamethasone (100 nM) followed by ganetespib (50 nM). Protein and transcript levels were analyzed using Western blot and qRT-PCR respectively.
(Immunoblotting shows a protein as a band on a membrane.)

The next experiment concerns AR target gene TMPRSS2. The experiment in a line: qRT-PCR of AR target gene transcript. Background: Real-time PCR tracks product formation cycle by cycle.
Experiment [1] concerns GR-α translational isoforms. The experiment in a line: Western blot of GR protein after Hsp90 inhibitor treatment of TNBC cell lines. The settings on record: 50 nM, 8 hrs. The method, then:
as §1

Experiment [2] deals with GR target gene transcripts (SGK1 and MKP1/DUSP1). Kind of experiment: qRT-PCR of GR target gene transcripts in TNBC cell lines. Particulars: 100 nM dex 2 hours, then ganetespib 50 nM. Here is the method: as §1
This induction was reduced following ganetespib (50 nM) treatment.

The subject of experiment [3] is GR target genes in MDA-MB-231. The experiment in a line: Multiplex RT-PCR assay of GR target genes. Particulars: MDA-MB-231, Veh/Veh = 1. Here is the method: The multiplex RT-PCR assay was performed to discover GR target genes that are affected by HSP90 inhibitor treatment of a triple-negative breast cancer cell line, MDA-MB-231.

Data on four compounds can be found in patent publication US10071130B2, “Methods and compositions related to Hsp90 inhibitors and breast cancer” (The University of Chicago, priority 2013, dated 2018).

With `CC(C)c1cc(-c2n[nH]c(=O)n2-c2ccc3c(ccn3C)c2)c(O)cc1O` [ganetespib], the AR protein level result in the experiment with AR protein is “depleted”. Also, the “Androgen-induced expression of the AR target gene TMPRSS2” value in the experiment with AR target gene TMPRSS2 (R1881 1 nM, concomitant ganetespib 50 nM) is reported as “decreased”. In addition, in experiment [1], the “GR-α translational isoforms protein level” value is reported as “depleted”. In experiment [2], the “Dexamethasone induction of GR target gene transcripts (SGK1 and MKP1/DUSP1)” value is “reduced”.
Turning to `C[C@]1(O)CC[C@H]2[C@@H]3CCC4=CC(=O)CCC4=C3C=C[C@@]21C` [R1881], the “Expression of the AR target gene TMPRSS2” value in the experiment on AR target gene TMPRSS2 (R1881 1 nM pre-treatment for 2 hours) is “induced”.
Regarding `C[C@@H]1C[C@H]2[C@@H]3CCC4=CC(=O)C=C[C@]4(C)[C@@]3(F)[C@@H](O)C[C@]2(C)[C@@]1(O)C(=O)CO` [dexamethasone], in experiment [3], the ANGPTL4 transcript level is 8.5, the BCL6 transcript level stood at 2.6, the CALCR transcript level is listed as 4.3 and the CEBPB transcript level is given as 4.1. In experiment [3], this compound had a DDIT4 transcript level of 2.9, a DUSP1 transcript level of 3.7, an EDN1 transcript level of 2.3 and an ERRFI1 transcript level of 3.4. In experiment [3], the FKBP5 transcript level is on record as 15.5, the GLUL transcript level is reported as 1.5, the IL6R transcript level worked out at 1.9 and the KLF9 transcript level was 9.5. In addition, in experiment [3], the KLF13 transcript level is recorded as 2.5, the LOX transcript level amounted to 2.4, the MT1E transcript level came to 2.7 and the MT2A transcript level was 3.0. In experiment [3], the NFKBIA transcript level came to 2.0, the PER1 transcript level is 12.7, the RHOB transcript level amounted to 5.6 and the SESN1 transcript level amounted to 1.4. In experiment [3], this compound gave an SGK1 transcript level of 2.9, an SLC19A2 transcript level of 2.0, an SLC22A5 transcript level of 1.3 and a TNFAIP3 transcript level of 2.2. In experiment [3], this compound returned a TSC22D3 transcript level of 22.8, a USP2 transcript level of 3.1, an XDH transcript level of 1.3 and a ZFP36 transcript level of 4.3.
Regarding `CCNC(=O)c1noc(-c2cc(C(C)C)c(O)cc2O)c1-c1ccc(CN2CCOCC2)cc1` [NVP-AUY922], in the experiment with AR protein, the AR protein level entry was “depleted”. Also, in experiment [1], the “GR-α translational isoforms protein level” value was “depleted”.
